This is an account of results in patent US6903218B2, “Sulfonamide substituted chroman derivatives” (Bayer Pharmaceuticals Corporation, priority 1997, dated 2005).

For orientation: melting point means the temperature, or range, at which the solid turns liquid.

Structures are written as SMILES.

As to `Nc1ccc([C@@H](O)CNC[C@H]2CCc3cc(NS(=O)(=O)c4ccc(-n5nnn(CCCC6CCCCC6)c5=O)cc4)ccc3O2)cn1`, the melting point is 94 to 95 °C.

`CC(C)c1ccc(NS(=O)(=O)c2ccc3c(c2)CCC(CNC[C@H](O)c2cccnc2)O3)cc1` (stereo in doubt) (hydrate or solvate) displayed a melting point of 104 to 106 °C.

`O=c1n(CCCC2CCCC2)nnn1-c1ccc(NS(=O)(=O)c2ccc3c(c2)CCC(CNC[C@H](O)c2cccnc2)O3)cc1` (stereo partly shown) (hydrate or solvate) had a melting point of 93 to 95 °C.

For `Nc1ccc([C@@H](O)CNCC2CCc3cc(S(=O)(=O)Nc4ccc(Cl)cc4)ccc3O2)cn1` (stereo in doubt), the melting point is 95 °C (dec.).

As for `Nc1ccc([C@@H](O)CNC[C@@H]2CCc3cc(S(=O)(=O)Nc4ccc(-n5nnn(CCCC6CCCC6)c5=O)cc4)ccc3O2)cn1`, the melting point is 99.3 to 99.7 °C.

Regarding `O=c1n(CCCC2CCCC2)nnn1-c1ccc(NS(=O)(=O)c2ccc3c(c2)CCC(CN(C[C@H](O)c2cccc(Cl)c2)C[C@H](O)c2cccc(Cl)c2)O3)cc1` (stereo partly shown) (hydrate or solvate), the melting point was 110 to 115 °C (dec.).

`O=c1n(CCCC2CCCC2)ccn1-c1ccc(NS(=O)(=O)c2ccc3c(c2)CCC(CNC[C@H](O)c2cccnc2)O3)cc1` (stereo in doubt) showed a melting point of 90 to 92 °C.
